Publication PMC10227015, “From a drug repositioning to a structure-based drug design approach to tackle acute lymphoblastic leukemia” (Nature Communications, 2023)
Like-named read-outs stand apart in the source and are kept apart here.

Tests used:
dCK-C3S-S74E [1] = experiment: Enzymatic assay (PK/LDH coupled), dC phosphorylation by dCK in the presence of ATP; assay type: biochemical, human; details: presence of ATP, read-out: ENZYMATIC ASSAY IC50
Procedure: (§1) For enzymatic assays, cells were re-suspended in 20 mM TRIS, pH 8 500 mM NaCl, 0.1% BRIJ-35 and 5% glycerol buffer and one EDTA free anti-protease tablet was added (Roche). After sonication and centrifugation (30,000 × g), the supernatant was loaded on a 5 ml HisTrap FF column (GE healthcare) pre-equilibrated with 20 mM TRIS, pH 8, 500 mM NaCl, 0.01% BRIJ-35 and 5% glycerol buffer. The protein was then eluted by the same buffer containing 250 mM imidazole after a wash containing 25 mM imidazole. The eluted fraction was applied on a HiPrep 26/10 desalting column (GE healthcare) pre-equilibrated with 20 mM TRIS, pH 8, 500 mM NaCl, 5% glycerol and 0.01% BRIJ-35 buffer. Finally, protein in a 20% glycerol buffer was flash frozen in liquid nitrogen and stored at −80 °C.
(§2) Kinetic analyses were performed using a spectrophotometric continuous enzymatic-coupled assay using pyruvate kinase (PK) and lactate dehydrogenase (LDH). Analysis of the effect of compounds on dCK-C3S-S74E activity was performed using dC as substrate and UTP/ATP as phosphate donors. UTP is the physiological dCK-phosphate donor[46] and it was used to determine activation versus inhibition behavior. ATP was used to calculate IC50 values, as it allows the analysis of a dose response curve. The PK/LDH coupled assay is based on the conversion of phosphoenolpyruvate (PEP) and UDP/ADP to pyruvate and UTP/ATP by PK and the subsequent conversion of pyruvate to lactate by LDH. The latter step requires NADH, which is oxidized to NAD^+. NADH is fluorescent (excitation at 337 nm and emission at 460 nm), but not NAD^+. Thus, the measurement of fluorescent decrease at 460 nm is a measure of kinase activity. dCK experiments were performed in a buffer containing 50 mM HEPES, pH 7.5, 5 mM MgCl2, 1 mM DTT, and 100 mM KCl. Buffer was supplemented with PK (0.01 U/µl), LDH (0.02 U/µl), PEP (1 mM), NADH (300 µM) and compounds at varying concentrations. For UTP assays, protein concentration was 2 μM, substrate 200 µM (dC), and UTP 1 mM. For ATP assays, protein concentration was 100 nM (and 50 nM when indicated), substrate 100 µM (dC), and ATP 1 mM. All measurements were performed on a microplate reader Pherastar FS (BMG Labtech). All assays were performed in triplicate and each experiment was performed at least twice. The data are presented as mean ± SD. The results were plotted as kinetics and the velocity was determined for each condition as the slope of the linear range of the curve. For each compound concentration, the velocity of the reaction (according to V = d[P]/dt) was normalized with respect to the drug free control and velocity ratios were compared. IC50 values corresponding to enzymatic inhibition in ATP were calculated by nonlinear regression curves using GraphPad Prism software 9.4.0.

dCK-C3S-S74E [2] = experiment: Enzymatic assay (PK/LDH coupled), dC phosphorylation by dCK in the presence of UTP; assay type: biochemical, human; details: presence of UTP
Procedure: as §1
as §2, with “Analysis of the effect of compounds on dCK-C3S-S74E activity was performed using dC as substrate and UTP/ATP as phosphate donors.” left out

CCRF-CEM cell line = experiment: dCK cellular assay: CCRF-CEM proliferation in the presence of dT and dC; assay type: cell-based, human; details: Homo sapiens
Procedure: The dCK cellular assay was set up to assess the ability to inhibit dCK activity in a cellular model. The model was developed with a T-cell acute lymphoblastic leukemia cell line (CCRF-CEM), because of its high dependence on the SP, thus on dCK activity. Cellular assays were performed to assess the inhibition of cell proliferation under two conditions: (i) in the presence of the compound alone to determine the nonspecific effect on cells, independent of dCK (nonspecific toxicity) and (ii) in the presence of an inhibitor of the DNP to determine the ability of compounds to inhibit dCK and decrease tumor proliferation (activity on dCK). The inhibitor of the DNP chosen for the experiments was thymidine (dT), a physiological inhibitor of ribonucleotide reductase which arrests cell proliferation in phase S. The dTTP produced via thymidine kinase from dT acts as a RNR inhibitor by an allosteric regulation of the R1 subunit. The addition of the nucleoside deoxycytidine (dC) in the medium allows the rescue of cell proliferation by passing only through the salvage pathway, mediated by dCK. dC needs to be added exogenously to mimic physiological concentrations because it is not present in the cell culture medium, on the contrary to mouse model, in which it is naturally present in the serum. Therefore, cell proliferation under these conditions (+dT +dC) is dCK dependent and it is possible to determine the IC50 of dCK inhibitors on the inhibition of cell proliferation. Results are expressed as % cell proliferation relative to the control with DMSO.
The amount of reduced dye formed by metabolically active cells was quantified by its fluorescence measured at 560 nm (excitation) and 590 nm (emission) in a microplate reader (CLARIOstar, BMG Labtech). A blank well without cells was used as a background control. Each experiment was performed at least three times (with technical triplicates) and data are presented as the mean ± SD.

dCK-C3S-S74E [3] = experiment: Thermal shift assay (TSA); details: for THERMAL SHIFT ASSAY +Tm (°): mean ± SD; for ΔTm (º) (TSA): Figure 2a, mean
dCK-C3S-S74E [4] = target: dCK-C3S-S74E (Homo sapiens, UniProt P27707, form not given/S74E); experiment: Thermal shift assay (TSA); details: Figure 2a, mean
[5] = read-out: dCK CELLULAR ASSAY IC50 (nM), CCRF-CEM, 200 µM dT and 1 µM dC, read-out: dCK […] ASSAY IC50
[6] = Figure 2a, CCRF-CEM cell line, mean, read-out: IC50 (nM) (Cell Prolif)

Sequence of dCK-C3S-S74E (P27707 whole entry S74E, form open): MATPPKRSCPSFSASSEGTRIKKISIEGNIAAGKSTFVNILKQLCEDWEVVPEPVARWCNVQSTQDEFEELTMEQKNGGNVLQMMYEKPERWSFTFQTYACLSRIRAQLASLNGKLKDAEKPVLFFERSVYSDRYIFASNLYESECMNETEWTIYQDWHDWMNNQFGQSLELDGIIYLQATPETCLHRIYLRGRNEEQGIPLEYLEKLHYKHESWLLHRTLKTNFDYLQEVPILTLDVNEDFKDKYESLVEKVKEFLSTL
Sequence of dCK-C3S-S74E (Homo sapiens, UniProt P27707, form not given/S74E) (P27707 whole entry S74E, form open): as above

Compound: COc1cc(-c2ccc(C)c(Nc3nc(-c4nccc(N)n4)cs3)c2)ccc1O [OR0321]
- IC50 (dCK-C3S-S74E [1]; [dCK] = 100 nM): 2270 ± 293 nM
- ENZYMATIC ASSAY (Activation/Inhibition) (dCK-C3S-S74E [2]): A/I
- IC50 (CCRF-CEM cell line; [5]): 8290 ± 2710 nM
- THERMAL SHIFT ASSAY +Tm (°) (dCK-C3S-S74E [3]): 13.3 ± 0.2 °

Compound: Cc1ccc(-c2ccc(CCCN3CCN(C)CC3)cc2)cc1Nc1nc(-c2nccc(N)n2)cs1 [OR0331]
- IC50 (dCK-C3S-S74E [1]; [dCK] = 100 nM): 401 ± 28 nM
- ENZYMATIC ASSAY (Activation/Inhibition) (dCK-C3S-S74E [2]): A/I
- IC50 (CCRF-CEM cell line; [5]): 918 ± 107 nM
- THERMAL SHIFT ASSAY +Tm (°) (dCK-C3S-S74E [3]): 19.4 ± 0.4 °

Compound: CCCN(c1nc(-c2nccc(N)n2)cs1)c1cc(-c2ccc(OCCN3CCN(C)CC3)cc2)ccc1C [OR0596]
- IC50 (dCK-C3S-S74E [1]; [dCK] = 100 nM): 286 ± 145 nM
- ENZYMATIC ASSAY (Activation/Inhibition) (dCK-C3S-S74E [2]): I
- IC50 (CCRF-CEM cell line; [5]): 307 ± 50 nM
- THERMAL SHIFT ASSAY +Tm (°) (dCK-C3S-S74E [3]): 18.9 ± 0.1 °

Compound: CCCN(c1nc(-c2nccc(N)n2)cs1)c1cc(-c2ccc(CCCN3CCN(C)CC3)cc2)ccc1C [OR0598]
- IC50 (dCK-C3S-S74E [1]; [dCK] = 100 nM): 301 ± 78 nM
- ENZYMATIC ASSAY (Activation/Inhibition) (dCK-C3S-S74E [2]): I
- IC50 (CCRF-CEM cell line; [5]): 776 ± 206 nM
- THERMAL SHIFT ASSAY +Tm (°) (dCK-C3S-S74E [3]): 19.1 ± 0.2 °

Compound: CCCN(c1nc(-c2nccc(N)n2)cs1)c1cc(-c2ccc(CCN3CCN(C)CC3)nc2)ccc1C [OR0599]
- IC50 (dCK-C3S-S74E [1]; [dCK] = 100 nM): 211 ± 52 nM
- ENZYMATIC ASSAY (Activation/Inhibition) (dCK-C3S-S74E [2]): I
- IC50 (CCRF-CEM cell line; [5]): 136 ± 53 nM
- THERMAL SHIFT ASSAY +Tm (°) (dCK-C3S-S74E [3]): 17.1 ± 0.2 °

Compound: CCCN(c1nc(-c2nc(N)cc(N)n2)cs1)c1cc(-c2ccc(CCCN3CCN(C)CC3)cc2)ccc1C [OR0601]
- IC50 (dCK-C3S-S74E [1]; [dCK] = 100 nM): 137 ± 3 nM
- ENZYMATIC ASSAY (Activation/Inhibition) (dCK-C3S-S74E [2]): I
- IC50 (CCRF-CEM cell line; [5]): 420 ± 83 nM
- THERMAL SHIFT ASSAY +Tm (°) (dCK-C3S-S74E [3]): 20.8 ± 0.7 °

Compound: Cc1ccc(-c2ccc(CCN3CCN(C)CC3)cc2)cc1N(CC(C)C)c1nc(-c2nc(N)cc(N)n2)cs1 [OR0603]
- IC50 (dCK-C3S-S74E [1]; [dCK] = 50 nM (footnote A)): 149 ± 44 nM
- ENZYMATIC ASSAY (Activation/Inhibition) (dCK-C3S-S74E [2]): I
- IC50 (CCRF-CEM cell line; [5]): 255 ± 70 nM
- THERMAL SHIFT ASSAY +Tm (°) (dCK-C3S-S74E [3]): 21.3 ± 0.8 °

Compound: Cc1ccc(-c2ccc(OCCN3CCN(C)CC3)nc2)cc1N(CC(C)C)c1nc(-c2nc(N)cc(N)n2)cs1 [OR0608]
- IC50 (dCK-C3S-S74E [1]; [dCK] = 50 nM (footnote A)): 106 ± 23 nM
- ENZYMATIC ASSAY (Activation/Inhibition) (dCK-C3S-S74E [2]): I
- IC50 (CCRF-CEM cell line; [6]): 40 nM
- ΔTm (º) (TSA) (dCK-C3S-S74E [3]): 21.03 º
- THERMAL SHIFT ASSAY +Tm (°) (dCK-C3S-S74E [3]): 21.0 ± 0.5 °

Compound: Cc1ccc(-c2ccc(CCN3CCN(C)CC3)cc2)cc1N(CCCN)c1nc(-c2nc(N)cc(N)n2)cs1 [OR0611]
- IC50 (dCK-C3S-S74E [1]; [dCK] = 50 nM (footnote A)): 498 ± 119 nM
- ENZYMATIC ASSAY (Activation/Inhibition) (dCK-C3S-S74E [2]): A/I
- IC50 (CCRF-CEM cell line; [6]): 11800 nM
- ΔTm (º) (TSA) (dCK-C3S-S74E [3]): 14.67 º
- THERMAL SHIFT ASSAY +Tm (°) (dCK-C3S-S74E [3]): 14.7 ± 0.5 °

Compound: CCCN(c1nc(-c2nc(N)cc(N)n2)cs1)c1cc(-c2ccc(C(=O)N3CCN(C)CC3)nc2)ccc1C [OR0612]
- IC50 (dCK-C3S-S74E [1]; [dCK] = 50 nM (footnote A)): 195 ± 16 nM
- ENZYMATIC ASSAY (Activation/Inhibition) (dCK-C3S-S74E [2]): I
- IC50 (CCRF-CEM cell line; [6]): 1000 nM
- ΔTm (º) (TSA) (dCK-C3S-S74E [3]): 16.58 º
- THERMAL SHIFT ASSAY +Tm (°) (dCK-C3S-S74E [3]): 16.6 ± 0.8 °

Compound: Cc1ccc(-c2ccc(S(=O)(=O)N3CCN(C)CC3)cc2)cc1Nc1nc(-c2nc(N)cc(N)n2)cs1 [OR0614]
- IC50 (dCK-C3S-S74E [1]; [dCK] = 50 nM (footnote A)): 233 ± 83 nM
- ENZYMATIC ASSAY (Activation/Inhibition) (dCK-C3S-S74E [2]): A/I
- IC50 (CCRF-CEM cell line; [6]): 10000 nM
- ΔTm (º) (TSA) (dCK-C3S-S74E [3]): 18.1 º
- THERMAL SHIFT ASSAY +Tm (°) (dCK-C3S-S74E [3]): 18.1 ± 0.8 °

Compound: CCCN(c1nc(-c2nc(N)cc(N)n2)cs1)c1cc(-c2ccc(S(N)(=O)=O)cc2)ccc1C [OR0615]
- IC50 (dCK-C3S-S74E [1]; [dCK] = 50 nM (footnote A)): 88 ± 68 nM
- ENZYMATIC ASSAY (Activation/Inhibition) (dCK-C3S-S74E [2]): I
- IC50 (CCRF-CEM cell line; [6]): 411 nM
- ΔTm (º) (TSA) (dCK-C3S-S74E [3]): 17.5 º
- THERMAL SHIFT ASSAY +Tm (°) (dCK-C3S-S74E [3]): 17.5 ± 0.7 °

Compound: CCCN(c1nc(-c2nc(N)cc(N)n2)cs1)c1cc(-c2ccc(S(=O)(=O)N3CCOCC3)cc2)ccc1C [OR0617]
- IC50 (dCK-C3S-S74E [1]; [dCK] = 50 nM (footnote A)): 181 ± 15 nM
- ENZYMATIC ASSAY (Activation/Inhibition) (dCK-C3S-S74E [2]): I
- IC50 (CCRF-CEM cell line; [6]): 78 nM
- ΔTm (º) (TSA) (dCK-C3S-S74E [3]): 18.29 º
- THERMAL SHIFT ASSAY +Tm (°) (dCK-C3S-S74E [3]): 18.3 ± 1.1 °

Compound: CCCN(c1nc(-c2nc(N)cc(N)n2)cs1)c1cc(-c2ccc(S(=O)(=O)N(C)C)cc2)ccc1C [OR0618]
- IC50 (dCK-C3S-S74E [1]; [dCK] = 50 nM (footnote A)): 139 ± 12 nM
- ENZYMATIC ASSAY (Activation/Inhibition) (dCK-C3S-S74E [2]): I
- IC50 (CCRF-CEM cell line; [6]): 80 nM
- ΔTm (º) (TSA) (dCK-C3S-S74E [3]): 18.79 º
- THERMAL SHIFT ASSAY +Tm (°) (dCK-C3S-S74E [3]): 18.8 ± 0.6 °

Compound: CCCN(c1nc(-c2nc(N)cc(N)n2)cs1)c1cc(-c2ccc(S(=O)(=O)N3CCN(CC(=O)[O-])CC3)cc2)ccc1C.[Na+] [OR0649]
- IC50 (CCRF-CEM cell line; CCRF-CEM, read-out: IC50 (nM) (Cell Prolif)): 13400 nM
- ΔTm (º) (TSA) (dCK-C3S-S74E [4]): 17.61 º
